Test results taken from PMC8321240, “Cell-Type-Specific High Throughput Toxicity Testing in Human Midbrain Organoids” (Frontiers in Molecular Neuroscience, 2021).

Assays:
[1] = system: TH+ dopaminergic and Map2+ general neurons in AMOs; assay: Dose-response analysis, TH and Map2 content by high content imaging; type: cell-based, human; conditions: 48 h + 6 days
Protocol: All processing steps were conducted in an HTS-compatible automated liquid handling system (ALHS, a Biomek FXP liquid handling station). To quantify different cellular subpopulations within the AMOs, we employed our previously described (Renner et al., [2020], [2021b]) ALHS-compatible workflow for combined whole-mount staining and clearing, with minor modifications. We fixed the AMOs with 4% PFA (VWR) for 10–15 min and stained the entire aggregates with primary and secondary antibodies for 6 days each. The antibodies used in this study were as follows. Primary: mouse anti-Map2 (1:1,000, Merck Millipore, cat#: MAB3418) and rabbit anti-TH (1:500, Abcam, cat#: ab112). Secondary: donkey anti-mouse IgG, Alexa Fluor 488 conjugated (1:1,000, Thermo Fisher, cat#: A-21202) and donkey anti-rabbit IgG, Alexa Fluor 647 conjugated (1:1,000, Thermo Fisher, cat#: A-31573). The antibodies were diluted in blocking and permeabilization solution consisting of 6% BSA, 0.5% Triton-X 100 (Roth), 0.1% (w/v) sodium azide (Sigma-Aldrich) in PBS (Sigma-Aldrich) and immediately added after fixation following a triple rinse with PBS. We renewed the antibody solutions once after three days. As a nuclear counter stain, we added DAPI (1 μg/ml, Sigma-Aldrich) to the solution containing the secondary antibodies. Between primary and secondary antibody application and after finishing the secondary antibody incubation, we washed the samples overnight with 0.1% Triton X-100 in PBS, with a total of five exchanges of the washing solution. After the whole-mount staining, we performed BABB-based tissue clearing (Dent et al., [1989]) to allow image acquisition with single-cell resolution of the entire aggregates. For this purpose, we first dehydrated the AMOs via a stepwise methanol (Roth) series (25%, 50%, 70%, 90%, and 100%, each for 15 min). For clearing and imaging, we transferred them to organic solvent-resistant cyclo-olefin 96-well flat-bottom plates (“Screenstar”, Greiner Bio-One). Finally, we incubated the samples for 30 min in 1:1 (v/v) methanol/BABB (BABB consisted of benzyl alcohol (Sigma-Aldrich) and benzyl benzoate (Sigma-Aldrich) at a 1:1 (v/v) ratio) and then kept them in 100% BABB in the dark for storage and subsequent automated high content confocal fluorescent analysis.
We prepared and treated the AMOs with the compounds as described for the primary viability screen. On day 50, after 48 h of compound incubation, we replaced the medium with standard AMO medium and maintained the AMOs for 6 additional days under standard culture conditions. This additional time allows the cells killed by the compounds to be cleared from the aggregates. After the 6 days, we fixed the organoids with 4% PFA, whole-mount-stained them for TH and Map2, and tissue-cleared them as described above. To achieve uniform aggregate positioning within the wells before imaging, we tilted the plates off the horizontal plane at 60 degrees for a minimum of 5 min. We performed automated image acquisition of entire 96-well plates on an Operetta high content imager (Perkin Elmer) and analyzed images in the Harmony 4.1 software and/or Columbus version 2.6.0 as previously described (Renner et al., [2020]), with adjustments to account for the individual properties of the staining and samples. We acquired three medial planes for each organoid, spaced 36.6 μm apart to avoid double-sampling individual morphological features. For the analysis, we defined the organoid region in each image by summing all channels, removed small localized features with a median filter (10 px), and identified putative organoids/regions of interest (ROIs) with the “find image region” function. To identify bona fide AMOs and exclude image artifacts and dust, we selected the ROIs with an area >9,000 μm^2, roundness >0.4, and mean DAPI intensity >190 arbitrary brightness units (abu).

[2] = system: automated midbrain organoids (AMOs); assay: Primary organoid viability screen (ATP-based CellTiter-Glo 3D); type: cell-based, human; conditions: approx. 100 μM, 48 or 96 h, two AMO lines
Protocol: We cultured AMOs for 47 days in our automated system as described above. On day 47, we exchanged the organoid medium to a minimal tox medium (TM, consisting of DMEM/F-12 with 1% N2 supplement and 1% penicillin/streptomycin/glutamine) to reduce possible interference from antioxidants in the B27 media supplement. The next day, we treated the AMOs with the compounds from the library at a concentration of 100 μM in TM with some deviations due to solubility (see Supplementary Table 1 for a complete list of compounds including their final concentrations in the screen). DMSO control samples contained 0.5% (v/v) DMSO, which is equivalent to the amount of solvent in the samples that received compound treatment. After 48 h of incubation with the compounds, we either directly processed the organoids for the 48-h time point or renewed the compounds in TM once to achieve 96 h of incubation. […] We recorded the luminescence immediately after the transfer using a Synergy Mx plate reader (BioTek). […]
In detail: All compounds including their controls were arrayed on a single 96-well plate (see Supplementary Table 1 for well positions), and replicated across three plates for a total of n = 3 replicates per condition (except AMO line 2 at 48 h n = 2). […] During our analysis, we first averaged the two technical replicates from the luminescence measurement in Microsoft Excel, yielding one averaged luminescence value for each well of the original 96-well AMO plates. Then, we normalized the luminescence detected in each well to the mean luminescence of the four DMSO controls of the same plate to get a relative organoid viability value. Normalization was performed separately for each plate to account for and correct for potential differences during the luminescence measurements. […] We further assessed the homogeneity of the AMOs by calculating the coefficient of variation (CV) for the relative viabilities of the DMSO controls (i.e., we divided the standard deviations by the corresponding means and averaged the resulting CV values for the DMSO controls). […]

[3] = system: automated midbrain organoids (AMOs); assay: Dose-response analysis, ATP-based overall AMO viability; type: cell-based, human; conditions: 0.01-1,000 μM, 48 h + 6 days; viability, Map2 and TH readouts
[4] = system: 2D-cultured midbrain dopaminergic (mDA) neurons; assay: Viability of 2D-cultured mDA neurons (CellTiter-Glo 2.0) in the 2D vs 3D comparison; type: cell-based; conditions: Homo sapiens, Neuron, 2D mDA neurons, 48 h exposure from day 50
Protocol: To compare the toxic effects of compounds on AMOs and 2D-cultured midbrain dopaminergic neurons, we seeded and cultured both in parallel and generated them from the same smNPC starting cell population. For 2D dopaminergic neuron differentiation, smNPCs were seeded in 1% (v/v in KO-DMEM/F-12) Matrigel-coated 6-well plates and standard smNPC medium, following digestion by accutase as described above. From day 2 onwards, they were treated identically with the AMOs (i.e., they received the same media at the same timepoints). To work with the 2D dopaminergic neurons in a screening setting (and have the same plate format as the AMOs), we reseeded them to flat-bottom 96-well plates (“μCLEAR”, black, Greiner) at a density of 70,000 cells/well on day 48. On day 49, the medium of both 2D mDA neurons and 3D AMOs was exchanged to tox medium. The next day, we treated them with different concentrations (0.01, 0.1, 1, 10, 50, 100, 200, 500, and 1,000 μM; controls received the corresponding solvent at an amount equivalent to the highest compound concentration; n = 6 per concentration) of the compounds lindane (Sigma-Aldrich, in ethanol) and 6-hydroxydopamine hydrochloride (Sigma Aldrich, in DMSO) in tox medium. After 48 h of incubation, we measured the samples’ viability. For the AMOs, we used the CellTiter-Glo 3D cell viability assay as described above. We measured the 2D mDA neuron viability with the CellTiter-Glo 2.0 cell viability assay (Promega) according to the manufacturer’s instructions. In short, we brought the sample plates and reagents to room temperature for 30 min. We adjusted the media volume of the samples to 50 μl and added an equal volume (50 μl) of the CellTiter-Glo 2.0 reagent. We let the plate shake for 2 min at 900 rpm on a Thermomixer and then incubated them for 10 min at room temperature and protected from light. Immediately afterward, we measured the luminescence on a Synergy Mx plate reader. We outputted the results to Microsoft Excel and GraphPad Prism v9.0.1 for reformatting, plotting, and analysis. Data processing was performed as outlined for the CellTiter-Glo 3D-based viability assay above, except for the averaging of technical replicates, as measurements were performed directly in the culture plate without additional technical replicates.
All other data analysis steps including the statistical analysis to identify significant differences in toxicity between 2D and 3D (via multiple unpaired t-tests with the same parameters as above, corrected for using the Bonferroni-Dunn method, and considering padj <0.05 as significant), as well as dose-response curve fitting, were performed as described in detail above. The IC50 values were taken from the same regression/analysis as the dose-response curves.

[5] = system: 2D cultured dopaminergic neurons; design: method as in Sharma et al., 2010; conditions: ref Sharma et al., 2010; cited from earlier work
[6] = system: automated midbrain organoids (AMOs); assay: Viability of 3D AMOs (CellTiter-Glo 3D) in the 2D vs 3D comparison; type: cell-based, human; conditions: for IC50: Homo sapiens, 48 h exposure from day 50
Protocol: We cultured AMOs for 47 days in our automated system as described above. On day 47, we exchanged the organoid medium to a minimal tox medium (TM, consisting of DMEM/F-12 with 1% N2 supplement and 1% penicillin/streptomycin/glutamine) to reduce possible interference from antioxidants in the B27 media supplement. The next day, we treated the AMOs with the compounds from the library at a concentration of 100 μM in TM with some deviations due to solubility (see Supplementary Table 1 for a complete list of compounds including their final concentrations in the screen). DMSO control samples contained 0.5% (v/v) DMSO, which is equivalent to the amount of solvent in the samples that received compound treatment. After 48 h of incubation with the compounds, we either directly processed the organoids for the 48-h time point or renewed the compounds in TM once to achieve 96 h of incubation. Following either 48 or 96 h of compound incubation, we used the CellTiter-Glo 3D cell viability assay (Promega) to measure the viability of individual organoids, as previously described (Renner et al., [2020]). Briefly, the 96-well plates of AMOs and the reagents were brought to room temperature for 30 min. We adjusted the media volume of each well to 55 μl and added an equal volume (55 μl) of the CellTiter-Glo 3D reagent. Next, the samples were shaken on a Thermomixer (Eppendorf) at 900 rpm for 5 min and then incubated for 25 min at room temperature while protected from light. To minimize signal cross-talk between adjacent wells, we transferred the contents of the clear 96-well culture plates to white/opaque 384-well Lumitrac plates (Greiner) with two technical replicates (20 μl each) per sample, after the incubation. We recorded the luminescence immediately after the transfer using a Synergy Mx plate reader (BioTek). We outputted the results to Microsoft Excel for reformatting and then transferred them to GraphPad Prism v9.0.1 (Graphpad Software, Inc.) for plotting and statistical analysis.
To compare the toxic effects of compounds on AMOs and 2D-cultured midbrain dopaminergic neurons, we seeded and cultured both in parallel and generated them from the same smNPC starting cell population. For 2D dopaminergic neuron differentiation, smNPCs were seeded in 1% (v/v in KO-DMEM/F-12) Matrigel-coated 6-well plates and standard smNPC medium, following digestion by accutase as described above. From day 2 onwards, they were treated identically with the AMOs (i.e., they received the same media at the same timepoints). To work with the 2D dopaminergic neurons in a screening setting (and have the same plate format as the AMOs), we reseeded them to flat-bottom 96-well plates (“μCLEAR”, black, Greiner) at a density of 70,000 cells/well on day 48. On day 49, the medium of both 2D mDA neurons and 3D AMOs was exchanged to tox medium. The next day, we treated them with different concentrations (0.01, 0.1, 1, 10, 50, 100, 200, 500, and 1,000 μM; controls received the corresponding solvent at an amount equivalent to the highest compound concentration; n = 6 per concentration) of the compounds lindane (Sigma-Aldrich, in ethanol) and 6-hydroxydopamine hydrochloride (Sigma Aldrich, in DMSO) in tox medium. After 48 h of incubation, we measured the samples’ viability. For the AMOs, we used the CellTiter-Glo 3D cell viability assay as described above. We measured the 2D mDA neuron viability with the CellTiter-Glo 2.0 cell viability assay (Promega) according to the manufacturer’s instructions. In short, we brought the sample plates and reagents to room temperature for 30 min. We adjusted the media volume of the samples to 50 μl and added an equal volume (50 μl) of the CellTiter-Glo 2.0 reagent. We let the plate shake for 2 min at 900 rpm on a Thermomixer and then incubated them for 10 min at room temperature and protected from light. Immediately afterward, we measured the luminescence on a Synergy Mx plate reader. […]

[7] = 0.01-1,000 μM (rotenone up to 100 μM), both AMO lines

Structure (SMILES)	Map2 content (general neurons) [1, 7]	TH content (dopaminergic neurons) [1, 7]	TH levels compared to Map2 levels ([1]; dose-response, padj < 0.05)	toxicity in the primary screens [2]	overall toxicity in the dose-response experiments [3]	IC50 ([4]; AMO line 1 cell line) [µM]	IC50 ([4]; AMO line 2 cell line) [µM]	toxicity of lindane alone [5]	concentrations with significant 2D vs 3D viability difference ([6]; AMO line 1, 48 h) [µM]	concentrations with significant 2D vs 3D viability difference ([6]; AMO line 2, 48 h) [µM]	IC50 ([6]; AMO line 1, 3D) [µM]	IC50 ([6]; AMO line 2, 3D) [µM]	toxicity in 3D AMOs compared with 2D-cultured dopaminergic neurons ([6]; both cell lines, 48 h, 0.01-1,000 μM, padj < 0.05)
O=C1C2CC=CCC2C(=O)N1SC(Cl)(Cl)Cl (centres unmarked) [captan]	reduced	reduced	significantly reduced TH levels compared to Map2 over a broad range of concentrations	intermediate toxicity	intermediate compared to ASS and the more toxic compounds								
Cl[C@H]1[C@H](Cl)[C@@H](Cl)[C@@H](Cl)[C@H](Cl)[C@H]1Cl [lindane]				strong possible toxicity		202	201	only mild toxicity	≥ 200	200	130	130	significantly more toxic in AMOs than in the 2D-cultured dopaminergic neurons
